In patent US10219516B2, “Molecules having pesticidal utility, and intermediates, compositions, and processes, related thereto” (priority 2015, dated 2019):
Where two headings read alike, the source gives them in different places.

Columns and labels:
Type in all cases: in vivo
[1] = system: Beet Armyworm (Spodoptera exigua, LAPHEG); experiment: Bioassay on Beet Armyworm (BAW), 128-well diet tray assay
In short: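 Artificial diet surface-treated with 50 μg/cm^2 test molecule in 90:10 acetone-water, dried, then infested with one to five second instar larvae per well. Held covered and vented at 25° C., 14:10 light-dark for five to seven days; percent mortality recorded per well and averaged over eight wells.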

[2] = system: Cabbage Looper (Trichoplusia ni, TRIPNI); experiment: Bioassay on Cabbage Looper (CL), 128-well diet tray assay; conditions: Trichoplusia ni
In short: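 Diet-incorporation-free surface assay: 50 μg/cm^2 compound in acetone-water (90:10), dried on diet; 1–5 2nd-instar larvae/well; 8 wells; vented cover; 25° C., 14:10 L:D, 5–7 d; % mortality averaged over wells.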

[3] = system: Yellow Fever Mosquito (Aedes aegypti, AEDSAE); experiment: Bioassay on Yellow Fever Mosquito (YFM), 96-well plate larval assay; conditions: for YFM (Biological Results, rating): Species YFM (Yellow Fever Mosquito); for YFM rating: Yellow Fever Mosquito, 96-well plate larval assay
In short: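 Compound stocks at 4000 ppm in DMSO were diluted with 90:10 water/acetone, and 15 μL aliquots were dispensed into six replicate plates. About 1-day-old larvae in liver-powder water were added per well. Plates were covered and held at room temperature for 3 days before each well was scored for mortality.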

[4] = Species BAW (Beet Armyworm), read-out: BAW (Biological Results, rating)
[5] = Species CL (Cabbage Looper), read-out: CL (Biological Results, rating)
[6] = Beet Armyworm, 128-well diet tray assay, read-out: BAW rating
[7] = Cabbage Looper, 128-well diet tray assay, read-out: CL rating

Which results are given for Nc1ccc(NC(=O)c2cc(NC(=O)[C@H]3[C@H](c4cc(Cl)cc(Cl)c4)C3(Cl)Cl)ccc2Cl)nc1 (relative stereo) [F305, N-(5-Aminopyridin-2-yl)-2-chloro-5-(trans-2,2-dichloro-3-(3,5-dichlorophenyl)cyclopropane-1-carboxamido)benzamide]?
pest or weed control at 50 µg/cm2 [1, 4]: 50 to 100%; pest or weed control at 50 µg/cm2 [2, 5]: 50 to 100%; YFM (Biological Results, rating) [3]: A (80-100)

Which results are given for CC(=O)Nc1ccc(NC(=O)c2cc(NC(=O)[C@H]3[C@H](c4cc(Cl)cc(Cl)c4)C3(Cl)Cl)cc(Cl)c2Cl)cc1 (relative stereo) [F248, trans-N-(4-Acetamidophenyl)-2,3-dichloro-5-(2,2-dichloro-3-(3,5-dichlorophenyl)cyclopropane-1-carboxamido)benzamide]?
pest or weed control at 50 µg/cm2 [1, 4]: 50 to 100%; pest or weed control at 50 µg/cm2 [2, 5]: 50 to 100%; YFM (Biological Results, rating) [3]: A (80-100)

Which results are given for Nc1cccc(NC(=O)c2cc(NC(=O)[C@H]3[C@H](c4cc(Cl)cc(Cl)c4)C3(Cl)Cl)ccc2Cl)n1 (relative stereo) [F326, trans-N-(6-aminopyridin-2-yl)-2-chloro-5-(2,2-dichloro-3-(3,5-dichlorophenyl)cyclopropane-1-carboxamido)benzamide]?
pest or weed control at 50 µg/cm2 [1, 4]: 50 to 100%; pest or weed control at 50 µg/cm2 [2, 5]: 50 to 100%; YFM (Biological Results, rating) [3]: A (80-100)

Which results are given for Nc1cc(NC(=O)c2cc(NC(=O)[C@H]3[C@H](c4ccc(Cl)c(Br)c4)C3(Cl)Cl)ccc2Cl)c(F)cc1F [F580, N-(5-Amino-2,4-difluorophenyl)-5-((1R,3R)-3-(3-bromo-4-chlorophenyl)-2,2-dichlorocyclopropane-1-carboxamido)-2-chlorobenzamide]?
pest or weed control at 50 µg/cm2 [1, 6]: 50 to 100%; pest or weed control at 50 µg/cm2 [2, 7]: 50 to 100%; YFM rating [3]: A (80-100)

Which results are given for O=C(Nc1cncc([N+](=O)[O-])c1)c1cc(NC(=O)[C@H]2[C@H](c3cc(Cl)cc(Cl)c3)C2(Cl)Cl)ccc1Cl [F358, 2-Chloro-5-((1R,3R)-2,2-dichloro-3-(3,5-dichlorophenyl)cyclopropane-1-carboxamido)-N-(5-nitropyridin-3-yl)benzamide]?
pest or weed control at 50 µg/cm2 [1, 4]: 50 to 100%; pest or weed control at 50 µg/cm2 [2, 5]: 50 to 100%; YFM (Biological Results, rating) [3]: A (80-100)

O=C(Nc1ccc(F)c(Cl)c1)c1cc(NC(=O)C2C(c3cc(Cl)cc(Cl)c3)C2(Cl)Cl)ccc1Cl (stereo not drawn) [PF122, 2-Chloro-N-(3-chloro-4-fluorophenyl)-5-(trans)-2,2-dichloro-3-(3,5-dichlorophenyl)cyclopropane-1-carboxamido)benzamide] was tested. Which pest or weed control at 50 µg/cm2 [1, 6] did it give?
Its pest or weed control at 50 µg/cm2 is 50 to 100%.

And the pest or weed control at 50 µg/cm2 [2, 7]?
Its pest or weed control at 50 µg/cm2 is 50 to 100%.

And the YFM rating [3]?
The YFM rating was “B (More than 0-Less than 80)”.

Which results are given for O=C(Nc1ccc(F)cc1)c1cc(NC(=O)[C@H]2[C@H](c3ccc([N+](=O)[O-])cc3)C2(Cl)Cl)ccc1Cl (relative stereo) [F422, 2-chloro-5-(trans-2,2-dichloro-3-(4-nitrophenyl)cyclopropane-1-carboxamido)-N-(4-fluorophenyl)benzamide]?
pest or weed control at 50 µg/cm2 [1, 6]: 50 to 100%; pest or weed control at 50 µg/cm2 [2, 7]: 50 to 100%; YFM rating [3]: A (80-100)

For Nc1cc(F)c(NC(=O)c2cc(NC(=O)[C@H]3[C@H](c4ccc(F)c(Cl)c4)C3(Cl)Cl)ccc2Cl)cc1F [F571, trans-N-(4-Amino-2,5-difluorophenyl)-2-chloro-5-((1R,3R)-2,2-dichloro-3-(3-chloro-4-fluorophenyl)cyclopropane-1-carboxamido)benzamide], which pest or weed control at 50 µg/cm2 [1, 6] is on record?
The pest or weed control at 50 µg/cm2 was 50 to 100%.

What about the pest or weed control at 50 µg/cm2 [2, 7] of the same compound?
The pest or weed control at 50 µg/cm2 was 50 to 100%.

What about the YFM rating [3] of the same compound?
Its YFM rating is “A (80-100)”.

With Cc1c(NC(=O)c2cc(NC(=O)[C@H]3[C@H](c4cc(Cl)cc(Cl)c4)C3(Cl)Cl)ccc2Cl)ccc2[nH]ccc12 (relative stereo) [F485, 2-Chloro-5-(trans)-(2,2-dichloro-3-(3,5-dichlorophenyl)cyclopropane-1-carboxamido)-N-(4-methyl-1H-indol-5-yl)benzamide] as the compound, how does the pest or weed control at 50 µg/cm2 [1, 6] read?
Its pest or weed control at 50 µg/cm2 is 50 to 100%.

What about the pest or weed control at 50 µg/cm2 [2, 7] of the same compound?
The pest or weed control at 50 µg/cm2 was 50 to 100%.

What about the YFM rating [3] of the same compound?
Its YFM rating is “A (80-100)”.

N#Cc1cc(F)ccc1NC(=O)c1cc(NC(=O)[C@H]2[C@H](c3ccc(Cl)c(Br)c3)C2(Cl)Cl)ccc1Cl (relative stereo) [F332, 5-(trans-3-(3-Bromo-4-chlorophenyl)-2,2-dichlorocyclopropane-1-carboxamido)-2-chloro-N-(2-cyano-4-fluorophenyl)benzamide] was tested. Which pest or weed control at 50 µg/cm2 [1, 4] did it give?
The pest or weed control at 50 µg/cm2 was 50 to 100%.

What about the pest or weed control at 50 µg/cm2 [2, 5] of the same compound?
The pest or weed control at 50 µg/cm2 was 50 to 100%.

What about the “YFM (Biological Results, rating)” value [3] of the same compound?
The value was “A (80-100)”.

CNc1ccc(NC(=O)c2cc(NC(=O)[C@H]3[C@H](c4ccc(F)c(Cl)c4)C3(Cl)Cl)ccc2Cl)cc1 (relative stereo) [F261, trans-2-Chloro-5-(2,2-dichloro-3-(3-chloro-4-fluorophenyl)cyclopropane-1-carboxamido)-N-(4-(methylamino)phenyl)benzamide] was tested. Which pest or weed control at 50 µg/cm2 [1, 4] did it give?
The pest or weed control at 50 µg/cm2 was 50 to 100%.

And the pest or weed control at 50 µg/cm2 [2, 5]?
Its pest or weed control at 50 µg/cm2 is 50 to 100%.

And the “YFM (Biological Results, rating)” value [3]?
Its value is “A (80-100)”.

Which pest or weed control at 50 µg/cm2 [1, 4] does the source give for N#Cc1ccc(NC(=O)c2cc(NC(=O)[C@H]3[C@H](c4cc(Cl)cc(Cl)c4)C3(Cl)Cl)ccc2Cl)c(C#N)c1 (relative stereo) [F287, trans-2-Chloro-5-(2,2-dichloro-3-(3,5-dichlorophenyl)cyclopropane-1-carboxamido)-N-(2,4-dicyanophenyl)benzamide] here?
The pest or weed control at 50 µg/cm2 was 50 to 100%.

And the pest or weed control at 50 µg/cm2 [2, 5]?
The pest or weed control at 50 µg/cm2 was 50 to 100%.

And the “YFM (Biological Results, rating)” value [3]?
Its value is “A (80-100)”.

For Cn1ccc2cc(NC(=O)c3cc(NC(=O)[C@H]4[C@H](c5cc(Cl)cc(Cl)c5)C4(Cl)Cl)ccc3Cl)cnc21 (relative stereo) [F464, 2-Chloro-5-(trans)-(2,2-dichloro-3-(3,5-dichlorophenyl)cyclopropane-1-carboxamido)-N-(1-methyl-1H-pyrrolo[2,3-b]pyridin-5-yl)benzamide], which pest or weed control at 50 µg/cm2 [1, 6] is on record?
The pest or weed control at 50 µg/cm2 was 50 to 100%.

And the pest or weed control at 50 µg/cm2 [2, 7]?
Its pest or weed control at 50 µg/cm2 is 50 to 100%.

And the YFM rating [3]?
The YFM rating was “A (80-100)”.

Nc1c(F)cnc(NC(=O)c2cc(NC(=O)[C@H]3[C@H](c4cc(Cl)cc(Cl)c4)C3(Cl)Cl)ccc2Cl)c1F [F370, N-(4-Amino-3,5-difluoropyridin-2-yl)-2-chloro-5-((1R,3R)-2,2-dichloro-3-(3,5-dichlorophenyl)cyclopropane-1-carboxamido)benzamide] was tested. Which pest or weed control at 50 µg/cm2 [1, 4] did it give?
The pest or weed control at 50 µg/cm2 was 50 to 100%.

And the pest or weed control at 50 µg/cm2 [2, 5]?
The pest or weed control at 50 µg/cm2 was 50 to 100%.

And the “YFM (Biological Results, rating)” value [3]?
The value was “A (80-100)”.

What does the source list for O=C(Nc1ccc(SC(F)(F)F)cc1)c1cc(NC(=O)[C@H]2[C@H](c3cc(Cl)cc(Cl)c3)C2(Cl)Cl)ccc1Cl (relative stereo) [PF11, trans-2-Chloro-5-(2,2-dichloro-3-(3,5-dichlorophenyl)cyclopropane-1-carboxamido)-N-(4-((trifluoromethyl)thio)phenyl)benzamide]?
pest or weed control at 50 µg/cm2 [1, 6]: 50 to 100%; pest or weed control at 50 µg/cm2 [2, 7]: 50 to 100%; YFM rating [3]: B (More than 0-Less than 80)

O=C(Nc1ccc(F)cc1F)c1cc(NC(=O)[C@H]2[C@H](c3ccc(Cl)c(Cl)c3)C2(Cl)Cl)ccc1F (relative stereo) [F62, trans-5-(2,2-Dichloro-3-(3,4-dichlorophenyl)cyclopropane-1-carboxamido)-N-(2,4-difluorophenyl)-2-fluorobenzamide] was tested. Which pest or weed control at 50 µg/cm2 [1, 4] did it give?
The pest or weed control at 50 µg/cm2 was 50 to 100%.

And the pest or weed control at 50 µg/cm2 [2, 5]?
The pest or weed control at 50 µg/cm2 was 50 to 100%.

And the “YFM (Biological Results, rating)” value [3]?
The value was “B (More than 0-Less than 80)”.

Nc1cccc(NC(=O)c2cc(NC(=O)[C@H]3[C@H](c4cc(Cl)cc(Cl)c4)C3(Cl)Cl)ccc2Cl)c1F [F426, N-(3-Amino-2-fluorophenyl)-2-chloro-5-((1R,3R)-2,2-dichloro-3-(3,5-dichlorophenyl)cyclopropane-1-carboxamido)benzamide] was tested. Which pest or weed control at 50 µg/cm2 [1, 6] did it give?
Its pest or weed control at 50 µg/cm2 is 50 to 100%.

And the pest or weed control at 50 µg/cm2 [2, 7]?
The pest or weed control at 50 µg/cm2 was 50 to 100%.

And the YFM rating [3]?
Its YFM rating is “A (80-100)”.

For Nc1cncc(NC(=O)c2cc(NC(=O)[C@H]3[C@H](c4cc(Cl)cc(Cl)c4)C3(Cl)Cl)ccc2Cl)c1 [F362, N-(5-aminopyridin-3-yl)-2-chloro-5-((1R,3R)-2,2-dichloro-3-(3,5-dichlorophenyl)cyclopropane-1-carboxamido)benzamide], which pest or weed control at 50 µg/cm2 [1, 4] is on record?
Its pest or weed control at 50 µg/cm2 is 50 to 100%.

And the pest or weed control at 50 µg/cm2 [2, 5]?
The pest or weed control at 50 µg/cm2 was 50 to 100%.

And the “YFM (Biological Results, rating)” value [3]?
Its value is “A (80-100)”.

Which results are given for Nc1c(F)cnc(NC(=O)c2cc(NC(=O)[C@H]3[C@H](c4cc(Cl)cc(Cl)c4)C3(Cl)Cl)ccc2Cl)c1F (relative stereo) [F345, trans-N-(4-Amino-3,5-difluoropyridin-2-yl)-2-chloro-5-(2,2-dichloro-3-(3,5-dichlorophenyl)cyclopropane-1-carboxamido)benzamide]?
pest or weed control at 50 µg/cm2 [1, 4]: 50 to 100%; pest or weed control at 50 µg/cm2 [2, 5]: 50 to 100%; YFM (Biological Results, rating) [3]: A (80-100)

Which results are given for CNc1ccc(N(C)C(=O)c2cc(NC(=O)[C@H]3[C@H](c4cc(Cl)c(Cl)c(Cl)c4)C3(Cl)Cl)ccc2Cl)c(C)c1 (relative stereo) [F226, trans-2-Chloro-5-(2,2-dichloro-3-(3,4,5-trichlorophenyl)cyclopropane-1-carboxamido)-N-methyl-N-(2-methyl-4-(methylamino)phenyl)benzamide]?
pest or weed control at 50 µg/cm2 [1, 4]: 50 to 100%; pest or weed control at 50 µg/cm2 [2, 5]: 50 to 100%; YFM (Biological Results, rating) [3]: A (80-100)

How did the pest or weed control at 50 µg/cm2 [1, 6] turn out when O=C(Nc1ccc(S(=O)(=O)C(F)(F)F)cc1)c1cc(NC(=O)[C@H]2[C@H](c3cc(Cl)cc(Cl)c3)C2(Cl)Cl)ccc1Cl (relative stereo) [PF19, trans-2-Chloro-5-(2,2-dichloro-3-(3,5-dichlorophenyl)cyclopropane-1-carboxamido)-N-(4-((trifluoromethyl)sulfonyl)phenyl)benzamide] was run?
The pest or weed control at 50 µg/cm2 was 50 to 100%.

And the pest or weed control at 50 µg/cm2 [2, 7]?
Its pest or weed control at 50 µg/cm2 is 50 to 100%.

What about the YFM rating [3] of the same compound?
Its YFM rating is “A (80-100)”.
